Experimental data published in patent US20190135787A1, “PYRIMIDINE COMPOSITIONS, ULTRA-PURE COMPOSITIONS AND SALTS THEREOF, METHODS OF MAKING THE SAME, AND METHODS OF USING THE SAME FOR TREATING HISTAMINE H4 RECEPTOR (H4) MEDIATED DISEASES AND CONDITIONS” (Novartis AG, priority 2015, published 2019).

Tests used:
[1] = Salt screen: physical stability under accelerated aging conditions (HT-XRPD); assay type: physicochemical; settings: 40° C., 75% RH, two days, code+number = crystalline salt form, 0 = crystalline counter ion itself
Procedure: XRPD patterns were obtained using the Crystallics T2 high-throughput XRPD set-up. The plates were mounted on a Bruker General Area Detector Diffraction System (GADDS) equipped with a VANTEC-500 gas area detector corrected for intensity and geometric variations. The calibration of the measurement accuracy (peaks position) was performed using NIST SRM1976 standard (Corundum).
Data collection was carried out at room temperature using monochromatic CuKα radiation in the 2θ region between 1.5° and 41.5°, which is the most distinctive part of the XRPD pattern. The diffraction pattern of each well was collected in two 20 ranges (1.5°≤2θ≤21.5° for the first frame, and 19.5°≤2θ≤41.5° for the second) with an exposure time of 90s for each frame. No background subtraction or curve smoothing was applied to the XRPD patterns.
Approximately 175 mg of N^4-(cyclopropylmethyl)-6-[(3R)-3-(methylamino)pyrrolidin-1-yl]pyrimidine-2,4-diamine in 1-Butanol and Dichloromethane were combined with a slight molar excess of either solid or liquid counter ion. Samples were incubated at RT. After 5 days the solids were collected, dried under vacuum and analyzed by HT-XRPD (XRPD 1).
Subsequently, the solids were exposed to accelerated aging conditions (40° C., 75% RH) for two days and re-analyzed by HT-XRPD (XRPD 2). Crystalline salts (polymorphs) are indicated with the abbreviated counter ion code and a number (1, 2, etc.). The number zero (0) indicates the crystalline counter ion itself.

mild asthmatics = settings: 36 mg, two single oral doses 12 hours apart; cited from earlier work
[2] = test system: adult subjects with moderate to severe atopic dermatitis; assay: Phase 2a study in moderate to severe atopic dermatitis; assay type: in vivo, human; settings: 8 weeks
Procedure: Following the phase 1 trials, a phase 2a trial was conducted to evaluate the efficacy of 8 weeks of treatment with 30 mg ZPL-389 administered once daily in adult subject with moderate to severe atopic dermatitis. The study was also designed to assess the safety and tolerability of ZPL-389 in adult subjects with moderate to severe atopic dermatitis.
This study was a randomized, double blind, placebo controlled, parallel group study of subjects having a pruritus Numerical Rating Scale (NRS) of ≥5 (0-10 scale), an Investigator's Global Assessment (IGA)≥3 (0-3 scale), and moderate-severe AD Eczema Area and Severity Index (EAST)≥12 and ≤48 (0-72 scale). In addition, subjective patient reported outcome instruments include: Ziarco Itch Diary (Electronic) Pruritus; 5D Pruritus Scale; Dermatology Life Quality Index (DLQI); and Patient Global Impression of Change (PGIG).
Each subject (aged 18-65 years) had one or more screening visits to confirm suitability to enter the study. 98 subjects with moderate to severe atopic dermatitis were randomized 2:1 to receive orally either 30 mg ZPL-389 or placebo once daily for eight weeks (56 days).
Efficacy endpoints for the trial include the following: • change from baseline in NRS for pruritus (worst itch) over 24 hours; • change from baseline in daytime NRS for pruritus (worst itch); • change from baseline in night time NRS for pruritus (worst itch); • change from baseline in NRS for sleep disturbance; • change from baseline in duration of itching; • change from baseline in verbal rating score for pruritus; • change from baseline in EASI score; • change from baseline in SCORAD score; • IGA score; • amount of rescue medication use; and/or • PGIC.

[3] = Phase 1 trials, single and multiple ascending doses; assay type: in vivo, human
Procedure: In phase 1 trials, 62 subjects were treated with ZPL-389.

[4] = Dynamic vapor sorption (DVS); assay type: physicochemical; settings: 25° C.
Procedure: Moisture sorption isotherms were collected on a DVS-1 system from Surface Measurement Systems (London, UK). Typical sample size is between 5 and 10 mg of solid material. The relative humidity was cycled between 40% to 0% (desorption), up to 95% (sorption), back to 0% RH (desorption) and up to 95% RH (sorption) in steps of 10% at a constant temperature of 25° C. with an initial stabilizing step at 40% RH for 6 hours.

Row | Molecule | XRPD2: solid form after accelerated aging ([1]; solid from 1-butanol) | XRPD2: solid form after accelerated aging ([1]; solid from dichloromethane) | further results
1 | O=C(O)[C@H](O)[C@@H](O)[C@H](O)[C@H](O)CO [Gluconic acid] | Amorphous | Amorphous | 
2 | O=C(O)C(O)c1ccccc1 (racemic) [DL-Mandelic acid] | Amorphous | Amorphous | 
3 | Fumaric acid | Amorphous | Fum0 + Fum3 | 
4 | O=P(O)(O)O [Phosphoric acid] | Pho2 plus | Pho3 | 
5 | CN[C@@H]1CCN(c2cc(NCC3CC3)nc(N)n2)C1 [ZPL-389, N^4-(cyclopropylmethyl)-6-[(3R)-3-(methylamino)pyrrolidin-1-yl]pyrimidine-2,4-diamine] |  |  | efficacy in mild asthma (mild asthmatics): no efficacy was observed; Treatment Emergent Adverse Events (TEAE) vs placebo ([2]; 30 mg once daily): no differences; rescue medication use vs placebo ([2]; 30 mg once daily): lower; tolerability / safety profile ([2]; 30 mg once daily, comparable to placebo): well tolerated; pruritus ([2]; 30 mg once daily, statistically significant compared to baseline): markedly reduced; IGA reduction ([2]; 30 mg orally once daily, placebo 25%): 36%; pharmacokinetics, dose dependence ([3]; phase 1 trials): dose-proportional pharmacokinetics; majority of observed adverse events ([3]; single doses 0.01-48 mg, 5, 15 and 50 mg once daily for 14 days): mild, transient, and non-dose related; tolerability ([3]; single doses 0.01-48 mg, 5, 15 and 50 mg once daily for 14 days, 62 subjects): safely tolerated
6 | O=C(O)c1cc(O)ccc1O [Gentisic acid] | Gen2 | Gen2 | 
7 | Ethanesulfonic acid | Amorphous | Amorphous | 
8 | CN[C@@H]1CCN(c2cc(NCC3CC3)nc(N)n2)C1.O.O.O=C(O)C(O)C(O)C(=O)O [Example 4, N^4-(cyclopropylmethyl)-6-[(3R)-3-(methylamino)pyrrolidin-1-yl]pyrimidine-2,4-diamine tartrate dihydrate] |  |  | total mass uptake ([4]; 20-30% RH): 6.9%; RH at which the dehydration step occurs during desorption [4]: below 10 % RH; water uptake (mass uptake) ([4]; between 0-20% RH): 1.9%; weight ([4]; between 30-90% RH): remains stable
9 | O=S(=O)(O)O [Sulfuric acid] | Amorphous | Amorphous | 
10 | Maleic acid | Amorphous | Amorphous | 
11 | (−)-L-Malic acid | Amorphous | Amorphous | 
12 | Citric acid | Amorphous | Amorphous | 
13 | O=C(O)[C@H](O)[C@@H](O)C(=O)O [(+)-L-Tartaric acid] | Amorphous | Amorphous | 
14 | N[C@@H](CC(=O)O)C(=O)O [L-Aspartic acid] | Asp0 | Amorphous | 
15 | Benzoic acid | Ben1 + Ben2 plus | Ben1 + Ben2 plus | 
16 | Br [Hydrobromic acid] | Amorphous | Amorphous | 

Row | Molecule | XRPD2: solid form after accelerated aging ([1]; solid from 1-butanol) | XRPD2: solid form after accelerated aging ([1]; solid from dichloromethane) | further results
17 | O=C(O)c1ccccc1O [Salicylic acid] | Sal1 plus | Amorphous | 
18 | Cl [Hydrochloric acid] | Amorphous | Amorphous | 
19 | Oxalic acid | Oxa3 | Oxa3 | 
20 | O=C(O)CCCC(=O)O [Glutaric acid] | Glut1 | Glut1 | 
21 | O=C[C@H](O)[C@@H](O)[C@H](O)[C@H](O)C(=O)O [D-Glucuronic acid] | Amorphous | Amorphous | 
22 | CC(=O)O [Acetic acid] | Amorphous | Amorphous | 
23 | CC(=O)Nc1ccc(C(=O)O)cc1 [4-acetamido-Benzoic acid] | ABen1 + ABen0 | ABen1 + ABen0 | 
24 | Lactic acid | Amorphous | Amorphous | 
25 | N[C@@H](CCC(=O)O)C(=O)O [Glutamic acid] | Gltm0 | Amorphous | 
26 | O=S(=O)(O)c1ccc2ccccc2c1 [Naphtalene-2-sulfonic acid] | Nap1 + Nap0 | Amorphous | 
27 | O=C(O)CNC(=O)c1ccccc1 [Hippuric acid] | Amorphous | Amorphous | 
28 | O=S(=O)(O)CCS(=O)(=O)O [Ethane-1,2-disulfonic acid] | Eds1 + Eds2 | Eds1 | 
29 | Benzenesulfonic acid | Amorphous | Amorphous | 
30 | CS(=O)(=O)O [Methanesulfonic acid] | Amorphous | Amorphous | 
31 | CCCCCCCCCCCCCCCCCC(=O)O [Stearic acid] | Ste0 + Ste1 | Ste0 + Ste1 | 
